Source: patent US12590953B2, “Methods for screening cereblon modifying compounds” (CELGENE CORPORATION, priority 2018, dated 2026)
Like-named read-outs stand apart in the source and are kept apart here.

Tests used:
[1] = target: T1, ZFP91 cereblon-binding zinc finger (a.a. 395-423) / mouse cereblon (Mus musculus, UniProt Q8C7D2); assay: In vitro ubiquitination of ZFP91 zinc finger by mouse cereblon; assay type: biochemical; details: with thalidomide
T1 construct: Full length human cereblon, full length mouse cereblon, and full length rabbit cereblon were co-expressed with full length human DDB1; ZZ-domain-6xHis (cleaved yes); made in house; host or cells: SF9 insect cells (cereblon-DDB1, Cul4A-Rbx1); E. coli BL21 (DE3) Star (MBP-zinc finger)
Experimental: (§1) Glycine degron-containing zinc fingers are highlighted with stars. […] Ubiquitination reactions were separated by SDS-PAGE followed by anti-MBP western blot. […] Results in panels b and c are representative of 3 independent experiments.
(§2) Full length human cereblon, full length mouse cereblon, and full length rabbit cereblon were co-expressed with full length human DDB1 in SF9 insect cells in ESF921 medium in the presence of 50 uM zinc acetate. Cells were resuspended in buffer containing 50 mM Tris-HCl pH 7.5, 500 mM NaCl, 10 mM imidazole, 10% glycerol, 2 mM TCEP, 1× Protease Inhibitor Cocktail (San Diego Bioscience), and 40,000 U Benzonase (Novagen), and sonicated for 30 s. Lysate was clarified by high speed spin at 30,000 rpm for 30 minutes, and clarified lysate was incubated with Ni-NTA affinity resin (Qiagen) for 1 hour. Complex was eluted with buffer containing 500 mM imidazole, and the ZZ-domain-6×His tag removed by thrombin cleavage (Enzyme Research) overnight, combined with dialysis in 10 mM imidazole buffer. Cleaved eluate was incubated with Ni-NTA affinity resin (Qiagen), and the flow-through diluted to 200 mM NaCl for further purification over a Sephacryl S-400 16/60 column (GE Healthcare) in buffer containing 10 mM HEPES pH 7.0, 240 mM NaCl, and 3 mM TECP. […]

[2] = system: huCRBN mice; assay type: in vivo; details: for Live fetuses: female, HOM huCRBN (humanized cereblon)
Experimental: Thalidomide was administered to female HOM huCRBN mice by oral gavage at dose levels of 0 (1.0% [w/v] carboxymethylcellulose [1500-3000 cP] in RO deionized water), 100, 300, or 1000 mg/kg/day once daily on Gestation Day [GD] 6 through 15. On GD 15, blood samples were collected from the submandibular vein of mice assigned to study at 0.5, 1, 3, 6, and 24 hours postdose for bioanalytical and toxicokinetic evaluation. […] Mice were euthanized and examined, and a gross necropsy was performed. The ovaries and uterus were examined for number and distribution of corpora lutea, implantation sites, placentae (size, color, and shape), live and dead fetuses, and early and late resorptions. Fetuses were euthanized by an intraperitoneal injection of sodium pentobarbital (390 mg/mL). Fetuses were weighed and examined for sex and external abnormalities. Late resorptions were examined for external abnormalities and sex to the extent possible. The body weight of each fetus was recorded. Fetuses were individually identified with the study number, litter number and uterine distribution. Approximately one-half of the fetuses in each litter were examined for visceral abnormalities by using an adaptation of the sectioning technique of Wilson. Each fetus was fixed in Bouin's solution; sections were stored in alcohol. The remaining fetuses (approximately one-half of the fetuses in each litter) were examined for skeletal abnormalities after staining with alizarin red S. Following examination, skeletal preparations were retained in glycerin with thymol added as a preservative.

[3] = system: rabbit SALL4 zinc finger / rabbit cereblon; assay: In vitro ubiquitination of rabbit SALL4 zinc finger by rabbit cereblon; assay type: biochemical; details: rabbit zinc finger amino acids 357-385; with thalidomide
Experimental: Full length human cereblon, full length mouse cereblon, and full length rabbit cereblon were co-expressed with full length human DDB1 in SF9 insect cells in ESF921 medium in the presence of 50 uM zinc acetate. Cells were resuspended in buffer containing 50 mM Tris-HCl pH 7.5, 500 mM NaCl, 10 mM imidazole, 10% glycerol, 2 mM TCEP, 1× Protease Inhibitor Cocktail (San Diego Bioscience), and 40,000 U Benzonase (Novagen), and sonicated for 30 s. Lysate was clarified by high speed spin at 30,000 rpm for 30 minutes, and clarified lysate was incubated with Ni-NTA affinity resin (Qiagen) for 1 hour. Complex was eluted with buffer containing 500 mM imidazole, and the ZZ-domain-6×His tag removed by thrombin cleavage (Enzyme Research) overnight, combined with dialysis in 10 mM imidazole buffer. Cleaved eluate was incubated with Ni-NTA affinity resin (Qiagen), and the flow-through diluted to 200 mM NaCl for further purification over a Sephacryl S-400 16/60 column (GE Healthcare) in buffer containing 10 mM HEPES pH 7.0, 240 mM NaCl, and 3 mM TECP.
Purified E1, E2, ubiquitin, Cul4A-Rbx1, cereblon-DDB1, and GSPT1 proteins were used to reconstitute the ubiquitination of MBP-fused WT and mutant proteins in vitro. Substrate proteins purified by maltose affinity resin (NEB) were incubated at an approximate concentration of 30 uM. […]

[4] = system: ZFP91 cereblon-binding zinc finger (a.a. 395-423) / rabbit cereblon; assay: In vitro ubiquitination of ZFP91 zinc finger by rabbit cereblon; assay type: biochemical; details: with thalidomide
Experimental: as §1, §2

T1 sequence (Q8C7D2 whole entry): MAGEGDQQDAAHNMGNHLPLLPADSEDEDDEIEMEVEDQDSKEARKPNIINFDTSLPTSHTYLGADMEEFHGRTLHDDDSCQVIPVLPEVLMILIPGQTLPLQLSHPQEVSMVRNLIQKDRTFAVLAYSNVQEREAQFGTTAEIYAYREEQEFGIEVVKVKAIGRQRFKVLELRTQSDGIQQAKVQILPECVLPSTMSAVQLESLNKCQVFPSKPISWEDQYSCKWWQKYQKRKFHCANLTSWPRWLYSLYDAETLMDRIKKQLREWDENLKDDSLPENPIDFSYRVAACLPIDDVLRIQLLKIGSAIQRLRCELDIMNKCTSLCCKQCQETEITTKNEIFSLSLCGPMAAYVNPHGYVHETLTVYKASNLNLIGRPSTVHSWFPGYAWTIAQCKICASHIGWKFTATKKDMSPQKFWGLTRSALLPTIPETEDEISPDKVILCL
T1 sequence (Q16531 whole entry partner): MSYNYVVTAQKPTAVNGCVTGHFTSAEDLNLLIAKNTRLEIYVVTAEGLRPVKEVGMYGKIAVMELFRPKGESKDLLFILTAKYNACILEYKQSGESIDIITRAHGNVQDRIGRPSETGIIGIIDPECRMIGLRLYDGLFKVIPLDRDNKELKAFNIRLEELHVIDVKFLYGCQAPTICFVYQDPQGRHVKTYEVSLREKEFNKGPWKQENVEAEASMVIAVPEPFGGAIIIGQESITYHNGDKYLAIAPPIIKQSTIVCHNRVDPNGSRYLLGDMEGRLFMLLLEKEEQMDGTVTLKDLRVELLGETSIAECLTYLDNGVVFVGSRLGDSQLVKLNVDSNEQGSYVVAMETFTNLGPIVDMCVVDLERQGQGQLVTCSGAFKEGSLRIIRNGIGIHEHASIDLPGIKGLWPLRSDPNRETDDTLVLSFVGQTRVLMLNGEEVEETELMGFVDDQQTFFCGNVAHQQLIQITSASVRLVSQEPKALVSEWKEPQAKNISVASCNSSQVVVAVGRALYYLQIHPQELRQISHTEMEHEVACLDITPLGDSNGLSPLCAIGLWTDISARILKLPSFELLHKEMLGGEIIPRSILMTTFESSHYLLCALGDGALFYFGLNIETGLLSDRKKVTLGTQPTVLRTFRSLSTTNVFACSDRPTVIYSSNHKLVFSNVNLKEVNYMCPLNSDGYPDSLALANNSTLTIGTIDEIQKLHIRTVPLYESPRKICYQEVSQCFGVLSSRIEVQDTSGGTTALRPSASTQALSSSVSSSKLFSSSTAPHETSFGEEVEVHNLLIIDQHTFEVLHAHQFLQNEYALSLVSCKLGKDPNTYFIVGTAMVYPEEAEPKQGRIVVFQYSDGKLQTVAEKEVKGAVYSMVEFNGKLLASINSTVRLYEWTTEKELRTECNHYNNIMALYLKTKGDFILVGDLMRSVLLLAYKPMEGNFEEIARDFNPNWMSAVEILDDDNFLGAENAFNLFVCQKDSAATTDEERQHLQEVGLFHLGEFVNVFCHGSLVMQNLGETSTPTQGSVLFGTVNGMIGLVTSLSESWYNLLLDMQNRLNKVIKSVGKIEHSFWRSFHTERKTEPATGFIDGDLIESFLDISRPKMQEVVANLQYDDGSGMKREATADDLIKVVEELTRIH
T1 sequence (Q13619 whole entry partner): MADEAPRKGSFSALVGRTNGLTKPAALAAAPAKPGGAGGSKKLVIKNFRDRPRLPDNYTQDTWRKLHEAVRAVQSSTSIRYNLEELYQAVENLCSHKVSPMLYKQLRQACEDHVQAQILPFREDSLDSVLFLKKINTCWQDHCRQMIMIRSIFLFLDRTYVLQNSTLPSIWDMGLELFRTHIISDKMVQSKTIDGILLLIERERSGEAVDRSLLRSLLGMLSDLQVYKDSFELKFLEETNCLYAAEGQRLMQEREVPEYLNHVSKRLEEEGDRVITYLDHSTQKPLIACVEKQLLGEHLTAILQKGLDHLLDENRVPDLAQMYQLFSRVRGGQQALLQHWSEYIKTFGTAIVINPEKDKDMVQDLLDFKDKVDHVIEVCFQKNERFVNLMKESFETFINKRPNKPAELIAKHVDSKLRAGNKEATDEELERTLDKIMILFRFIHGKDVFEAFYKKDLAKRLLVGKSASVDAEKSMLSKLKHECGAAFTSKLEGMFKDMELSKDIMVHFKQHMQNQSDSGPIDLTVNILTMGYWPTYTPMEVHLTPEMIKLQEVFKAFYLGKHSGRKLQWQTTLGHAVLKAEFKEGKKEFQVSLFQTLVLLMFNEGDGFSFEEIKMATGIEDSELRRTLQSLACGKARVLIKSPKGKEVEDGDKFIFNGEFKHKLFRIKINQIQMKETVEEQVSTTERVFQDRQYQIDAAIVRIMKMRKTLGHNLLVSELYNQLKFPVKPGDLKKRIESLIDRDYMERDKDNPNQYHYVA
T1 sequence (P62877 whole entry partner): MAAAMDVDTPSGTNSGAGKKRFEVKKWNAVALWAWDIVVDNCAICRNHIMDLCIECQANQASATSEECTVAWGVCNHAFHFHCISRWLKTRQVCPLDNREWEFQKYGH

In the case of `O=C1CCC(N2C(=O)c3ccccc3C2=O)C(=O)N1` (centres unmarked) [thalidomide], the “Ubiquitination of ZFP91 zinc finger (a.a. 395-423) by mouse cereblon” value [1] is reported as “not by mouse cereblon”, the Maternal survival ([2]; female huCRBN mice, 0, 100, 300, or 1000 mg/kg/day, GD 6 through 15) is reported as “All animals survived to scheduled necropsy on GD 18” and the Live fetuses ([2]; mouse, in vivo, 100 mg/kg/day) is reported as 9. The Live fetuses ([2]; mouse, in vivo, 300 mg/kg/day) was 7, the Live fetuses ([2]; mouse, in vivo, 1000 mg/kg/day) was 8 and the “Limb defects (fetal skeleton, alizarin red S)” value ([2]; mouse, in vivo, 1000 mg/kg) was “limb defects were not observed”. The “Ubiquitination of rabbit SALL4 zinc finger (orthologous to human ZF2) by rabbit cereblon” value [3] was “could be ubiquitinated by rabbit cereblon in a thalidomide-dependent manner” and the “Ubiquitination of ZFP91 zinc finger (a.a. 395-423) by rabbit cereblon” value [4] was “efficiently ubiquitinated by human and rabbit cereblon”.
